The subject of this assay is MV-4-11 cells. Kind of assay: Gene expression microarray analysis (Affymetrix PrimeView) and GSEA. Details: RFU PODN (11730768_x_at) / Fold change /veh PODN (11730768_x_at) / RFU LINC00158 (11744669_a_at) / Fold change /veh LINC00158 (11744669_a_at) / RFU DUSP10 (11751237_a_at) / Fold change /veh DUSP10 (11751237_a_at) / RFU ID3 (11757404_x_at) / Fold change /veh ID3 (11757404_x_at) / RFU PLEKHG5 (11737974_s_at) / Fold change /veh PLEKHG5 (11737974_s_at) / RFU LRRC4B (11730491_at) / Fold change /veh LRRC4B (11730491_at) / RFU GIMAP4 (11747438_a_at) / Fold change /veh GIMAP4 (11747438_a_at) / RFU KRT8 (11758183_x_at) / Fold change /veh KRT8 (11758183_x_at) / RFU CNN1 (11734310_a_at) / Fold change /veh CNN1 (11734310_a_at) / RFU VPS37D (11726825_at) / Fold change /veh VPS37D (11726825_at) / RFU C10orf10 (11716522_x_at) / Fold change /veh C10orf10 (11716522_x_at) / RFU KIR2DL2 /// KIR2DL4 /// KIR2DL5A /// KIR2DL5B /// KIR2DS1 /// KIR2DS2 /// KIR2DS3 /// KIR2DS4 /// KIR3DL3 /// KIR3DL3 /// KIR3DS1 (11738374_at) / Fold change /veh KIR2DL2 /// KIR2DL4 /// KIR2DL5A /// KIR2DL5B /// KIR2DS1 /// KIR2DS2 /// KIR2DS3 /// KIR2DS4 /// KIR3DL3 /// KIR3DL3 /// KIR3DS1 (11738374_at) / RFU C1QL1 (11718748_at) / Fold change /veh C1QL1 (11718748_at) / RFU TMPRSS4 (11747572_a_at) / Fold change /veh TMPRSS4 (11747572_a_at) / RFU HAMP (11756126_x_at) / Fold change /veh HAMP (11756126_x_at) / RFU RNFT2 (11725882_a_at) / Fold change /veh RNFT2 (11725882_a_at) / RFU NR4A2 (11747474_a_at) / Fold change /veh NR4A2 (11747474_a_at) / RFU ABCC12 (11746883_a_at) / Fold change /veh ABCC12 (11746883_a_at) / RFU TMEM136 (11760407_x_at) / Fold change /veh TMEM136 (11760407_x_at) / RFU CLDN22 /// WWC2 (11732394_at) / Fold change /veh CLDN22 /// WWC2 (11732394_at) / RFU HLA-DPB1 (11760878_x_at) / Fold change /veh HLA-DPB1 (11760878_x_at) / RFU SPINT1 (11716480_a_at) / Fold change /veh SPINT1 (11716480_a_at) / RFU GAP43 (11754022_s_at) / Fold change /veh GAP43 (11754022_s_at) / RFU A4GNT (11735810_at) / Fold change /veh A4GNT (11735810_at) / RFU PRB3 (11715151_x_at) / Fold change /veh PRB3 (11715151_x_at) / RFU TUBB4B (11761932_at) / Fold change /veh TUBB4B (11761932_at) / RFU CAPN14 (11732068_a_at) / Fold change /veh CAPN14 (11732068_a_at) / RFU TMCC2 (11721928_a_at) / Fold change /veh TMCC2 (11721928_a_at) / RFU IRGQ (11745062_a_at) / Fold change /veh IRGQ (11745062_a_at) / RFU FAM174B (11720279_a_at) / Fold change /veh FAM174B (11720279_a_at) / RFU TMPRSS4 (11748680_a_at) / Fold change /veh TMPRSS4 (11748680_a_at) / RFU FAM212B (11763350_a_at) / Fold change /veh FAM212B (11763350_a_at) / RFU PLEKHG5 (11743358_a_at) / Fold change /veh PLEKHG5 (11743358_a_at) / RFU ZSCAN30 (11745921_a_at) / Fold change /veh ZSCAN30 (11745921_a_at) / RFU CMKLR1 (11741424_a_at) / Fold change /veh CMKLR1 (11741424_a_at) / RFU LOC101060620 /// MAPK8IP1 (11723275_at) / Fold change /veh LOC101060620 /// MAPK8IP1 (11723275_at) / RFU SPTSSB (11747773_x_at) / Fold change /veh SPTSSB (11747773_x_at) / RFU PRSS12 (11739890_at) / Fold change /veh PRSS12 (11739890_at) / RFU BIN1 (11741810_x_at) / Fold change /veh BIN1 (11741810_x_at) / RFU WNT11 (11732464_a_at) / Fold change /veh WNT11 (11732464_a_at) / RFU C10orf10 (11716521_a_at) / Fold change /veh C10orf10 (11716521_a_at) / RFU C5orf56 (11738089_at) / Fold change /veh C5orf56 (11738089_at) / RFU CYB561 (11721691_x_at) / Fold change /veh CYB561 (11721691_x_at) / RFU ANKRD19P (11752326_a_at) / Fold change /veh ANKRD19P (11752326_a_at) / RFU OR2T12 /// OR2T33 /// OR2T8 (11738714_s_at) / Fold change /veh OR2T12 /// OR2T33 /// OR2T8 (11738714_s_at) / RFU VCAN (11748164_a_at) / Fold change /veh VCAN (11748164_a_at) / RFU JSRP1 (11732532_at) / Fold change /veh JSRP1 (11732532_at) / RFU KRTAP10-11 (11738290_x_at) / Fold change /veh KRTAP10-11 (11738290_x_at) / RFU MYO3A (11730013_a_at) / Fold change /veh MYO3A (11730013_a_at) / RFU EBF3 (11725865_a_at) / Fold change /veh EBF3 (11725865_a_at) / RFU CAMK2N1 (11719241_x_at) / Fold change /veh CAMK2N1 (11719241_x_at) / RFU C5orf56 (11738088_a_at) / Fold change /veh C5orf56 (11738088_a_at) / RFU OLFML3 (11715873_a_at) / Fold change /veh OLFML3 (11715873_a_at) / RFU LOC100653217 /// NTM (11731650_a_at) / Fold change /veh LOC100653217 /// NTM (11731650_a_at) / RFU MAPK11 (11762145_a_at) / Fold change /veh MAPK11 (11762145_a_at) / RFU FIZ1 (11724087_x_at) / Fold change /veh FIZ1 (11724087_x_at) / RFU OASL (11726364_x_at) / Fold change /veh OASL (11726364_x_at) / RFU SOX15 (11748057_x_at) / Fold change /veh SOX15 (11748057_x_at) / RFU CD79A (11719716_a_at) / Fold change /veh CD79A (11719716_a_at) / RFU HIST1H1D (11736915_at) / Fold change /veh HIST1H1D (11736915_at) / RFU CASKIN2 (11723855_a_at) / Fold change /veh CASKIN2 (11723855_a_at) / RFU LOC730098 (11760151_x_at) / Fold change /veh LOC730098 (11760151_x_at) / RFU OR4N2 (11742367_at) / Fold change /veh OR4N2 (11742367_at) / RFU PRRT2 (11749266_a_at) / Fold change /veh PRRT2 (11749266_a_at) / RFU SNX32 (11753110_a_at) / Fold change /veh SNX32 (11753110_a_at) / RFU CDHR5 (11726645_a_at) / Fold change /veh CDHR5 (11726645_a_at) / RFU RCAN1 (11760418_a_at) / Fold change /veh RCAN1 (11760418_a_at) / RFU FAM167A (11723789_a_at) / Fold change /veh FAM167A (11723789_a_at) / RFU FAM26E (11764081_at) / Fold change /veh FAM26E (11764081_at) / RFU ISYNA1 (11749810_s_at) / Fold change /veh ISYNA1 (11749810_s_at) / RFU ACY1 (11761880_at) / Fold change /veh ACY1 (11761880_at) / RFU 11764098_at / Fold change /veh 11764098_at / RFU SAMD14 (11745864_x_at) / Fold change /veh SAMD14 (11745864_x_at) / RFU NPB (11741838_a_at) / Fold change /veh NPB (11741838_a_at) / RFU TMPRSS6 (11731388_a_at) / Fold change /veh TMPRSS6 (11731388_a_at) / RFU KRTAP10-2 (11738614_at) / Fold change /veh KRTAP10-2 (11738614_at) / RFU ARHGAP8 /// PRR5-ARHGAP8 (11727945_x_at) / Fold change /veh ARHGAP8 /// PRR5-ARHGAP8 (11727945_x_at) / RFU KRTAP5-7 /// NADSYN1 (11734609_at) / Fold change /veh KRTAP5-7 /// NADSYN1 (11734609_at) / RFU RASL12 (11751679_a_at) / Fold change /veh RASL12 (11751679_a_at) / RFU CDKN2B (11736163_a_at) / Fold change /veh CDKN2B (11736163_a_at) / RFU PRF1 (11729649_at) / Fold change /veh PRF1 (11729649_at) / RFU, ZNF638 /// ZNF638-IT1 / Fold change vs veh, ZNF638 /// ZNF638-IT1 / RFU, PANK3 / Fold change vs veh, PANK3 / RFU, SH3YL1 / Fold change vs veh, SH3YL1 / RFU, ZEB2 / Fold change vs veh, ZEB2 / RFU, NRIP1 / Fold change vs veh, NRIP1 / RFU, PTTG1IP / Fold change vs veh, PTTG1IP / RFU, CAPN2 / Fold change vs veh, CAPN2 / RFU, MED14 / Fold change vs veh, MED14 / RFU, SNORA58 / Fold change vs veh, SNORA58 / RFU, C1orf63 / Fold change vs veh, C1orf63 / RFU, LRRFIP1 / Fold change vs veh, LRRFIP1 / RFU, NDUFAF7 / Fold change vs veh, NDUFAF7 / RFU, SLC12A2 / Fold change vs veh, SLC12A2 / RFU, IBTK / Fold change vs veh, IBTK / RFU, ESF1 / Fold change vs veh, ESF1 / Fold change vs veh, TMEM50B / RFU, TAOK1 / Fold change vs veh, TAOK1 / RFU, ACBD3 / Fold change vs veh, ACBD3 / RFU, TMA16 / Fold change vs veh, TMA16 / RFU, RWDD3 / Fold change vs veh, RWDD3 / RFU, BCAT1 / Fold change vs veh, BCAT1 / RFU, EDEM3 / Fold change vs veh, EDEM3 / RFU, TMEM33 / Fold change vs veh, TMEM33 / RFU, WDR75 / Fold change vs veh, WDR75 / RFU, AHCTF1 / Fold change vs veh, AHCTF1 / RFU, TFRC / Fold change vs veh, TFRC / RFU, ZDHHC17 / Fold change vs veh, ZDHHC17 / RFU, NOM1 / Fold change vs veh, NOM1 / RFU, ARL8B / Fold change vs veh, ARL8B / RFU, ZBTB11 / Fold change vs veh, ZBTB11 / RFU, TAMM41 / Fold change vs veh, TAMM41 / RFU, KIAA1704 /// LOC100996395 / Fold change vs veh, KIAA1704 /// LOC100996395 / RFU, ING1 / Fold change vs veh, ING1 / RFU, TRMT61B / Fold change vs veh, TRMT61B / RFU, FUBP3 / Fold change vs veh, FUBP3 / RFU, TP53 / Fold change vs veh, TP53 / RFU, TNKS2 / Fold change vs veh, TNKS2 / RFU, ZFP14 / Fold change vs veh, ZFP14 / RFU, ACTR2 / Fold change vs veh, ACTR2 / RFU, PPP3R1 / Fold change vs veh, PPP3R1 / RFU, PIK3R1 / Fold change vs veh, PIK3R1 / RFU, HNRNPA1 / Fold change vs veh, HNRNPA1 / RFU, RNF170 / Fold change vs veh, RNF170 / RFU, ZNF28 / Fold change vs veh, ZNF28 / RFU, RNGTT / Fold change vs veh, RNGTT / RFU, OGT / Fold change vs veh, OGT / RFU, BRD1 / Fold change vs veh, BRD1 / RFU, MARS / Fold change vs veh, MARS / RFU, ZNF655 / Fold change vs veh, ZNF655 / RFU, FAHD1 / Fold change vs veh, FAHD1 / RFU, BDP1 / Fold change vs veh, BDP1 / RFU, LRRCC1 / Fold change vs veh, LRRCC1 / RFU, ARID1A / Fold change vs veh, ARID1A / RFU, ZNF146 / Fold change vs veh, ZNF146 / RFU, ZNF330 / Fold change vs veh, ZNF330 / RFU, GPN3 / Fold change vs veh, GPN3 / RFU, C9orf123 / Fold change vs veh, C9orf123 / RFU, N4BP2L2 / Fold change vs veh, N4BP2L2 / RFU, ARFIP1 / Fold change vs veh, ARFIP1 / RFU, FAM179B / Fold change vs veh, FAM179B / RFU, BCL10 / Fold change vs veh, BCL10 / RFU, UHRF1BP1L / Fold change vs veh, UHRF1BP1L / RFU, BET1 / Fold change vs veh, BET1 / RFU, CNOT2 / Fold change vs veh, CNOT2 / RFU, ZNF268 / Fold change vs veh, ZNF268 / Fold change vs veh, ZNF507 / RFU, DGCR2 / Fold change vs veh, DGCR2 / RFU, WDSUB1 / Fold change vs veh, WDSUB1 / Fold change vs veh, HSP90B1 /// MIR3652 / RFU, ADSS / Fold change vs veh, ADSS / RFU, GK / Fold change vs veh, GK / RFU, ZNF148 / Fold change vs veh, ZNF148 / RFU, TAF9 / Fold change vs veh, TAF9 / RFU, SLC1A5 / Fold change vs veh, SLC1A5 / RFU, SLMO2 / Fold change vs veh, SLMO2 / RFU, ABCC4 / Fold change vs veh, ABCC4 / RFU, LOC101060439 /// RAP1B / Fold change vs veh, LOC101060439 /// RAP1B / RFU, RFX7 / Fold change vs veh, RFX7 / RFU, GTPBP10 / Fold change vs veh, GTPBP10 / RFU, CNEP1R1 / Fold change vs veh, CNEP1R1 / RFU, BIVM-ERCC5 /// ERCC5 / Fold change vs veh, BIVM-ERCC5 /// ERCC5 / RFU, ILF3 / Fold change vs veh, ILF3 / RFU 11762660_at / Fold change /veh 11762660_at / RFU VCAN (11757783_s_at) / Fold change /veh VCAN (11757783_s_at) / RFU DDX43 (11728927_at) / Fold change /veh DDX43 (11728927_at) / RFU KRT8 (11758188_x_at) / Fold change /veh KRT8 (11758188_x_at) / RFU NKD1 (11759106_at) / Fold change /veh NKD1 (11759106_at) / RFU SRD5A1 (11742802_a_at) / Fold change /veh SRD5A1 (11742802_a_at) / RFU TPSAB1 /// TPSB2 (11721975_s_at) / Fold change /veh TPSAB1 /// TPSB2 (11721975_s_at) / RFU GSTM3 (11746129_a_at) / Fold change /veh GSTM3 (11746129_a_at) / RFU IL23R (11737362_x_at) / Fold change /veh IL23R (11737362_x_at) / RFU TMEM51 (11727254_a_at) / Fold change /veh TMEM51 (11727254_a_at) / RFU PIWIL2 (11732686_x_at) / Fold change /veh PIWIL2 (11732686_x_at) / RFU ORM1 (11744905_x_at) / Fold change /veh ORM1 (11744905_x_at) / RFU CCDC152 (11743942_at) / Fold change /veh CCDC152 (11743942_at) / RFU ECM1 (11717891_a_at) / Fold change /veh ECM1 (11717891_a_at) / RFU IL23R (11748794_a_at) / Fold change /veh IL23R (11748794_a_at) / RFU TNFAIP8L3 (11732012_x_at) / Fold change /veh TNFAIP8L3 (11732012_x_at) / RFU MBOAT4 (11741988_at) / Fold change /veh MBOAT4 (11741988_at) / RFU 11764193_at / Fold change /veh 11764193_at / RFU TMEM53 (11763286_at) / Fold change /veh TMEM53 (11763286_at) / RFU MAGEB2 (11727129_at) / Fold change /veh MAGEB2 (11727129_at) / RFU TMEM200A (11744735_a_at) / Fold change /veh TMEM200A (11744735_a_at) / RFU CCDC152 (11751479_a_at) / Fold change /veh CCDC152 (11751479_a_at) / RFU FAM211A (11726209_a_at) / Fold change /veh FAM211A (11726209_a_at) / RFU RGS16 (11746705_a_at) / Fold change /veh RGS16 (11746705_a_at) / RFU VCAN (11755009_s_at) / Fold change /veh VCAN (11755009_s_at) / RFU RHOB (11743442_s_at) / Fold change /veh RHOB (11743442_s_at) / RFU RGS16 (11720943_a_at) / Fold change /veh RGS16 (11720943_a_at) / RFU RGS16 (11720944_at) / Fold change /veh RGS16 (11720944_at) / RFU, VPS4B / Fold change vs veh, VPS4B / RFU, CREB1 / Fold change vs veh, CREB1 / RFU, DNAJC13 / Fold change vs veh, DNAJC13 / RFU, GNAQ / Fold change vs veh, GNAQ / RFU, CDK5R1 / Fold change vs veh, CDK5R1 / RFU, ZRANB3 / Fold change vs veh, ZRANB3 / RFU, CUL4A / Fold change vs veh, CUL4A / RFU, CCNY / Fold change vs veh, CCNY / RFU, UFL1 / Fold change vs veh, UFL1 / RFU, COG3 / Fold change vs veh, COG3 / RFU, DIAPH2 / Fold change vs veh, DIAPH2 / RFU, SKA2 / Fold change vs veh, SKA2 / RFU, AFF3 / Fold change vs veh, AFF3 / RFU, LMF1 / Fold change vs veh, LMF1 / RFU, IPO11 / Fold change vs veh, IPO11 / RFU, DFFB / Fold change vs veh, DFFB / RFU, FOXP1 / Fold change vs veh, FOXP1 / RFU, CARD8 / Fold change vs veh, CARD8 / RFU, STRN3 / Fold change vs veh, STRN3 / RFU, ADK / Fold change vs veh, ADK / RFU, RASSF2 / Fold change vs veh, RASSF2 / RFU, WIPF1 / Fold change vs veh, WIPF1 / RFU, LARP1B / Fold change vs veh, LARP1B / RFU, RASA1 / Fold change vs veh, RASA1 / RFU, RB1 / Fold change vs veh, RB1 / RFU, PPFIA1 / Fold change vs veh, PPFIA1 / RFU, MAT2A / Fold change vs veh, MAT2A / RFU, CCT5 / Fold change vs veh, CCT5 / RFU, WDR92 / Fold change vs veh, WDR92 / RFU, CUX1 / Fold change vs veh, CUX1 / RFU, TTC7A / Fold change vs veh, TTC7A / RFU, TMEM135 / Fold change vs veh, TMEM135 / RFU, DEPTOR / Fold change vs veh, DEPTOR / RFU, CPM / Fold change vs veh, CPM / RFU, DNAJB6 / Fold change vs veh, DNAJB6 / RFU, CACNA2D3 / Fold change vs veh, CACNA2D3 / RFU, DTX4 / Fold change vs veh, DTX4 / RFU, TFCP2 / Fold change vs veh, TFCP2 / RFU, GMCL1 /// GMCL1P1 / Fold change vs veh, GMCL1 /// GMCL1P1 / RFU, AEBP2 / Fold change vs veh, AEBP2 / RFU, SNHG1 /// SNORD22 /// SNORD25 /// SNORD26 /// SNORD27 /// SNORD28 /// SNORD29 /// SNORD31 / Fold change vs veh, SNHG1 /// SNORD22 /// SNORD25 /// SNORD26 /// SNORD27 /// SNORD28 /// SNORD29 /// SNORD31 / Fold change (Aza/veh), C12orf56 (ProbeSet 11735607_a_at) / Fold change (ACY-1035/veh), C12orf56 (ProbeSet 11735607_a_at) / Fold change (Aza/veh), FGFR1OP (ProbeSet 11751329_s_at) / Fold change (ACY-1035/veh), FGFR1OP (ProbeSet 11751329_s_at) / Fold change (Aza/veh), VPS36 (ProbeSet 11739960_a_at) / Fold change (ACY-1035/veh), VPS36 (ProbeSet 11739960_a_at) / RFU SYPL1 (11715823_x_at) / Fold change /veh SYPL1 (11715823_x_at) / RFU IGFBP7 (11715501_s_at) / Fold change /veh IGFBP7 (11715501_s_at) / RFU REEP3 (11722064_at) / Fold change /veh REEP3 (11722064_at) / RFU IGLL1 (11728026_x_at) / Fold change /veh IGLL1 (11728026_x_at): dose or concentration left out as unconfirmed. The following applies: ProbeSet 11743286_at; LIST D. In kind it is cell-based, human.

SMILES strings stand for the structures.

As to `Nc1ncn([C@@H]2O[C@H](CO)[C@@H](O)[C@H]2O)c(=O)n1` [azacitidine], the “Fold change vs veh, DTX4” value is reported as 0.59.

Source of the values: article PMC5218480 (PLoS ONE, 2017).
